This is an account of results in patent US6569904B1, “Agent for lowering endothelin levels” (Orion Corporation, priority 1998, dated 2003).

Holding throughout (assay type): in vivo, postmenopausal breast cancer patients
In one data set the test system is endothelin-1 (ET-1). As to the kind of experiment: Effect on endothelin-1 level in plasma of patients treated orally for one year. As to conditions: for Plasma level of endothelin-1, at 6 months: at 6 months of oral treatment (toremifene 40 mg/d, tamoxifen 20 mg/d, estradiol valerate 2 mg/d); for Plasma level of endothelin-1, at 6 months / Plasma level of endothelin-1, at 12 months / Plasma level of endothelin-1, before treatment: mean±SE; for Plasma level of endothelin-1, at 12 months: at 12 months of oral treatment (toremifene 40 mg/d, tamoxifen 20 mg/d, estradiol valerate 2 mg/d); for Plasma level of endothelin-1, before treatment: baseline before treatment, breast cancer patients; for Effect on endothelin-1 level in patients during the treatment (in words): oral treatment for one year. The protocol:
Effect of toremifene on endothelin-1 level in plasma
(§1) Postmenopausal breast cancer patients were treated with 40 mg/d toremifene (Fareston™) (n=19), 20 mg/d tamoxifen (Tadex™) (n=25) or 2 mg/d estradiol valerate (Progynova™)(n=14) orally for one year. The 44 patients of the antiestrogen groups had been operated on breast cancer 6-8 weeks before the trial. Plasma samples (10 ml) were collected before and at 6 and 12 months of each regimen, and plasma levels of endothelin-1 (ET-1) and nitrite/nitrate (NOx) were measured by established methods. The data (presented as mean±SE) were analyzed by two-way analysis of variance (ANOVA) for repeated measures. When differences were indicated by ANOVA, their significances at individual timepoints were calculated by means of a t-test for independent means (between-groups comparison) or a t-test for dependent means (comparison to baseline within a single group). For determination of correlation between two variables, the Pearsson coefficient was calculated.

The test system of another data set is nitrite/nitrate (NOx). As to the kind of experiment: Plasma nitrite/nitrate (NOx) level in patients treated orally for one year. As to conditions: mean±SE; for Plasma level of nitrite/nitrate, at 6 months: at 6 months of oral treatment; for Plasma level of nitrite/nitrate, at 12 months: at 12 months of oral treatment; for Plasma level of nitrite/nitrate, before treatment: baseline before treatment, breast cancer patients. How it is done: as §1

Data set [1] in a line: Occurrence of thromboses and cerebrovascular accidents in three clinical adjuvant trials. As to conditions: for Cerebrovascular accidents (number of occurrences) / Deep vein thromboses (number of occurrences): oral toremifene 40 mg/d (1120 patients) vs oral tamoxifen 20 mg/day (1110 patients) for 3 years, serious events. How it is done:
Occurrence of thromboses and cerebrovascular accidents
In three clinical adjuvant trials effects of oral toremifene 40 mg/d was compared to oral tamoxifen 20 mg/day for 3 years in postmenopausal breast cancer patients. The occurrence of serious deep vein thromboses and serious cerebrovascular accidents in toremifen and tamoxifen groups are summarized in Table 2.

Turning to `CCCCC(=O)O[C@H]1CC[C@H]2[C@@H]3CCc4cc(O)ccc4[C@H]3CC[C@]12C` [Estrogen, estradiol valerate], in the data set with endothelin-1 (ET-1), the “Plasma level of endothelin-1, at 6 months” value worked out at 2.7 ± 0.2 ng/L; the “Plasma level of endothelin-1, at 12 months” value is 2.7 ± 0.2 ng/L; the “Plasma level of endothelin-1, before treatment” value came to 2.8 ± 0.2 ng/L. Moreover, in the data set with nitrite/nitrate (NOx), the “Plasma level of nitrite/nitrate, at 6 months” value came out at 21.5 ± 3.2 µmol/L; the “Plasma level of nitrite/nitrate, at 12 months” value was found to be 18.5 ± 2.7 µmol/L; the “Plasma level of nitrite/nitrate, before treatment” value turned out to be 25.8 ± 3.7 µmol/L.
In the case of `CN(C)CCOc1ccc(/C(=C(/CCCl)c2ccccc2)c2ccccc2)cc1` [Toremifene, toremifene], in the data set with endothelin-1 (ET-1), the “Plasma level of endothelin-1, at 6 months” value is 2.6 ± 0.2 ng/L; the “Plasma level of endothelin-1, at 12 months” value stood at 2.6 ± 0.2 ng/L; the “Plasma level of endothelin-1, before treatment” value was 3.0 ± 0.2 ng/L; the “Effect on endothelin-1 level in patients during the treatment (in words)” value is on record as “significantly lowered endothelin-1 level”. In the data set on nitrite/nitrate (NOx), the “Plasma level of nitrite/nitrate, at 6 months” value stood at 21.0 ± 2.5 µmol/L; the “Plasma level of nitrite/nitrate, at 12 months” value was 21.6 ± 3.1 µmol/L; the “Plasma level of nitrite/nitrate, before treatment” value came to 23.4 ± 4.0 µmol/L. Also, in data set [1], the “Cerebrovascular accidents (number of occurrences)” value came out at 2 and the “Deep vein thromboses (number of occurrences)” value is reported as 7.
As for `CC/C(=C(\c1ccccc1)c1ccc(OCCN(C)C)cc1)c1ccccc1` [Tamoxifen, tamoxifen], in the data set with endothelin-1 (ET-1), the “Plasma level of endothelin-1, at 6 months” value turned out to be 3.5 ± 0.2 ng/L; the “Plasma level of endothelin-1, at 12 months” value was determined as 3.2 ± 0.2 ng/L; the “Plasma level of endothelin-1, before treatment” value was determined as 3.5 ± 0.2 ng/L; the “Effect on endothelin-1 level in patients during the treatment (in words)” value is “no effect”. In the data set with nitrite/nitrate (NOx), the “Plasma level of nitrite/nitrate, at 6 months” value is 22.8 ± 4.0 µmol/L; the “Plasma level of nitrite/nitrate, at 12 months” value was found to be 20.4 ± 2.5 µmol/L; the “Plasma level of nitrite/nitrate, before treatment” value came to 20.6 ± 2.3 µmol/L. Moreover, in data set [1], the “Cerebrovascular accidents (number of occurrences)” value was 14 and the “Deep vein thromboses (number of occurrences)” value is 13. In addition, the “Vascular complications (deep vein thrombosis and cerebrovascular events), comparison in words” value in data set [1] (tamoxifen treated patients compared with toremifene treated patients) is “clearly more vascular complications”.
